Assay results reported in ChEMBL document CHEMBL4715724, “Novel 5-substituted-2-anilinoquinolines with 3-(morpholino or 4-methylpiperazin-1-yl)propoxy moiety as broad spectrum antiproliferative agents: Synthesis, cell based assays and kinase screening” (Bioorg Med Chem Lett, 2016).

Experiments:
COLO 205 = experiment: Growth inhibition of human COLO 205 cells assessed as growth percentage at 10 uM measured after 48 hrs by sulforhodamine B assay relative to control; assay type: functional; settings: read-out: Activity
CCRF-CEM = experiment: cells; assay type: functional; settings: Homo sapiens, time 48 hrs
Description: Growth inhibition of human CCRF-CEM cells incubated for 48 hrs by sulforhodamine B assay

K562 = experiment: cells; assay type: functional; settings: Homo sapiens, time 48 hrs
Description: Growth inhibition of human K562 cells incubated for 48 hrs by sulforhodamine B assay

SR = experiment: cells; assay type: functional; settings: Homo sapiens, time 48 hrs
Description: Growth inhibition of human SR cells incubated for 48 hrs by sulforhodamine B assay

A549 = experiment: cells; assay type: functional; settings: Homo sapiens, time 48 hrs
Description: Growth inhibition of human A549/ATCC cells incubated for 48 hrs by sulforhodamine B assay

HOP-62 = experiment: cells; assay type: functional; settings: Homo sapiens, time 48 hrs
Description: Growth inhibition of human HOP-62 cells incubated for 48 hrs by sulforhodamine B assay

HOP-92 = experiment: cells; assay type: functional; settings: Homo sapiens, time 48 hrs
Description: Growth inhibition of human HOP-92 cells incubated for 48 hrs by sulforhodamine B assay

NCI-H226 = experiment: cells; assay type: functional; settings: Homo sapiens, time 48 hrs
Description: Growth inhibition of human NCI-H226 cells incubated for 48 hrs by sulforhodamine B assay

NCI-H23 = experiment: cells; assay type: functional; settings: Homo sapiens, time 48 hrs
Description: Growth inhibition of human NCI-H23 cells incubated for 48 hrs by sulforhodamine B assay

NCI-H322M = experiment: cells; assay type: functional; settings: Homo sapiens, time 48 hrs
Description: Growth inhibition of human NCI-H322M cells incubated for 48 hrs by sulforhodamine B assay

NCI-H460 = experiment: cells; assay type: functional; settings: Homo sapiens, time 48 hrs
Description: Growth inhibition of human NCI-H460 cells incubated for 48 hrs by sulforhodamine B assay

NCI-H522 = experiment: cells; assay type: functional; settings: Homo sapiens, time 48 hrs
Description: Growth inhibition of human NCI-H522 cells incubated for 48 hrs by sulforhodamine B assay

HCT-116 = experiment: cells; assay type: functional; settings: Homo sapiens, time 48 hrs
Description: Growth inhibition of human HCT-116 cells incubated for 48 hrs by sulforhodamine B assay

HCT-15 = experiment: cells; assay type: functional; settings: Homo sapiens, time 48 hrs
Description: Growth inhibition of human HCT-15 cells incubated for 48 hrs by sulforhodamine B assay

HT-29 = experiment: cells; assay type: functional; settings: Homo sapiens, time 48 hrs
Description: Growth inhibition of human HT-29 cells incubated for 48 hrs by sulforhodamine B assay

KM12 = experiment: cells; assay type: functional; settings: Homo sapiens, time 48 hrs
Description: Growth inhibition of human KM12 cells incubated for 48 hrs by sulforhodamine B assay

SF-295 = experiment: cells; assay type: functional; settings: Homo sapiens, time 48 hrs
Description: Growth inhibition of human SF-295 cells incubated for 48 hrs by sulforhodamine B assay

SNB-75 = experiment: cells; assay type: functional; settings: Homo sapiens, time 48 hrs
Description: Growth inhibition of human SNB-75 cells incubated for 48 hrs by sulforhodamine B assay

U-251 = experiment: cells; assay type: functional; settings: Homo sapiens, time 48 hrs
Description: Growth inhibition of human U-251 cells incubated for 48 hrs by sulforhodamine B assay

LOX IMVI = experiment: cells; assay type: functional; settings: Homo sapiens, time 48 hrs
Description: Growth inhibition of human LOX IMVI cells incubated for 48 hrs by sulforhodamine B assay

SK-MEL-28 [1] = experiment: cells; assay type: functional; settings: Homo sapiens, time 48 hrs
Description: Growth inhibition of human SK-MEL-28 cells incubated for 48 hrs by sulforhodamine B assay

UACC-257 = experiment: cells; assay type: functional; settings: Homo sapiens, time 48 hrs
Description: Growth inhibition of human UACC-257 cells incubated for 48 hrs by sulforhodamine B assay

UACC-62 = experiment: cells; assay type: functional; settings: Homo sapiens, time 48 hrs
Description: Growth inhibition of human UACC-62 cells incubated for 48 hrs by sulforhodamine B assay

IGROV-1 = experiment: cells; assay type: functional; settings: Homo sapiens, time 48 hrs
Description: Growth inhibition of human IGROV-1 cells incubated for 48 hrs by sulforhodamine B assay

OVCAR-3 = experiment: cells; assay type: functional; settings: Homo sapiens, time 48 hrs
Description: Growth inhibition of human OVCAR-3 cells incubated for 48 hrs by sulforhodamine B assay

OVCAR-4 = experiment: cells; assay type: functional; settings: Homo sapiens, time 48 hrs
Description: Growth inhibition of human OVCAR-4 cells incubated for 48 hrs by sulforhodamine B assay

OVCAR-8 = experiment: cells; assay type: functional; settings: Homo sapiens, time 48 hrs
Description: Growth inhibition of human OVCAR-8 cells incubated for 48 hrs by sulforhodamine B assay

A498 = experiment: cells; assay type: functional; settings: Homo sapiens, time 48 hrs
Description: Growth inhibition of human A498 cells incubated for 48 hrs by sulforhodamine B assay

RXF 393 = experiment: cells; assay type: functional; settings: Homo sapiens, time 48 hrs
Description: Growth inhibition of human RXF 393 cells incubated for 48 hrs by sulforhodamine B assay

TK-10 = experiment: cells; assay type: functional; settings: Homo sapiens, time 48 hrs
Description: Growth inhibition of human TK-10 cells incubated for 48 hrs by sulforhodamine B assay

UO-31 = experiment: cells; assay type: functional; settings: Homo sapiens, time 48 hrs
Description: Growth inhibition of human UO-31 cells incubated for 48 hrs by sulforhodamine B assay

PC-3 = experiment: cells; assay type: functional; settings: Homo sapiens, time 48 hrs
Description: Growth inhibition of human PC-3 cells incubated for 48 hrs by sulforhodamine B assay

MCF7 = experiment: cells; assay type: functional; settings: Homo sapiens, time 48 hrs
Description: Growth inhibition of human MCF7 cells incubated for 48 hrs by sulforhodamine B assay

MDA-MB-231 = experiment: cells; assay type: functional; settings: Homo sapiens, time 48 hrs
Description: Growth inhibition of human MDA-MB-231/ATCC cells incubated for 48 hrs by sulforhodamine B assay

Hs-578T = experiment: cells; assay type: functional; settings: Homo sapiens, time 48 hrs
Description: Growth inhibition of human Hs-578T cells incubated for 48 hrs by sulforhodamine B assay

MDA-MB-468 = experiment: cells; assay type: functional; settings: Homo sapiens, time 48 hrs
Description: Growth inhibition of human MDA-MB-468 cells incubated for 48 hrs by sulforhodamine B assay

SK-MEL-5 = experiment: Growth inhibition of human SK-MEL-5 cells assessed as growth percentage at 10 uM measured after 48 hrs by sulforhodamine B assay relative to control; assay type: functional; settings: read-out: Activity
[2] = test system: Panel leukemia (Carcinoma cell lines); experiment: cells; assay type: functional; settings: Homo sapiens, time 48 hrs
Description: Growth inhibition of human Panel leukemia (Carcinoma cell lines) incubated for 48 hrs by sulforhodamine B assay

cells = assay type: functional; settings: Homo sapiens, Non-small cell lung cancer cell line; time 48 hrs
Description: Growth inhibition of human Non-small cell lung cancer cell line incubated for 48 hrs by sulforhodamine B assay

[3] = test system: Panel colon (Carcinoma cell lines); experiment: cells; assay type: functional; settings: Homo sapiens, time 48 hrs; for CC50: read-out: LC50 (the source's name)
Description: Growth inhibition of human Panel colon (Carcinoma cell lines) incubated for 48 hrs by sulforhodamine B assay

[4] = test system: Panel CNS (Carcinoma cell lines); experiment: cells; assay type: functional; settings: Homo sapiens, time 48 hrs; for CC50: read-out: LC50 (the source's name)
Description: Growth inhibition of human Panel CNS (Carcinoma cell lines) incubated for 48 hrs by sulforhodamine B assay

[5] = test system: Panel melanoma (Carcinoma cell lines); experiment: cells; assay type: functional; settings: Homo sapiens, time 48 hrs
Description: Growth inhibition of human Panel melanoma (Carcinoma cell lines) incubated for 48 hrs by sulforhodamine B assay

[6] = test system: Panel ovarian (Carcinoma cell lines); experiment: cells; assay type: functional; settings: Homo sapiens, time 48 hrs
Description: Growth inhibition of human Panel ovarian (Carcinoma cell lines) incubated for 48 hrs by sulforhodamine B assay

[7] = test system: Panel renal (Carcinoma cell lines); experiment: cells; assay type: functional; settings: Homo sapiens, time 48 hrs
Description: Growth inhibition of human Panel renal (Carcinoma cell lines) incubated for 48 hrs by sulforhodamine B assay

[8] = test system: Panel prostate (Carcinoma cell lines); experiment: cells; assay type: functional; settings: Homo sapiens, time 48 hrs
Description: Growth inhibition of human Panel prostate (Carcinoma cell lines) incubated for 48 hrs by sulforhodamine B assay

[9] = test system: Panel breast (Carcinoma cell lines); experiment: cells; assay type: functional; settings: Homo sapiens, time 48 hrs; for CC50: read-out: LC50 (the source's name)
Description: Growth inhibition of human Panel breast (Carcinoma cell lines) incubated for 48 hrs by sulforhodamine B assay

[10] = test system: Panel NCI-60 (60 carcinoma cell lines); experiment: cells; assay type: functional; settings: Homo sapiens, time 48 hrs; for CC50: read-out: LC50 (the source's name)
Description: Growth inhibition of human Panel NCI-60 (60 carcinoma cell lines) incubated for 48 hrs by sulforhodamine B assay

[11] = Cytotoxicity against human HFF-1 cells assessed as cell growth inhibition at 10 uM by MTT assay relative to control; assay type: cell-based; settings: read-out: GI
[12] = Cytotoxicity against human HFF-1 cells assessed as cell growth inhibition at 1 uM by MTT assay relative to control; assay type: cell-based; settings: read-out: GI
[13] = Cytotoxicity against human HFF-1 cells assessed as cell growth inhibition at 0.1 uM by MTT assay relative to control; assay type: cell-based; settings: read-out: GI
[14] = Cytotoxicity against human HFF-1 cells assessed as cell growth inhibition by MTT assay; assay type: cell-based
SK-MEL-28 [15] = experiment: Growth inhibition of human SK-MEL-28 cells assessed as growth percentage at 10 uM measured after 48 hrs by sulforhodamine B assay relative to control; assay type: functional; settings: read-out: Activity

**Q.** Which growth at 10 µM (COLO 205) does the source give for `Fc1ccc(Nc2ccc3c(OCCCN4CCOCC4)cccc3n2)cc1F` here?
**A.** 66.5%

**Q.** What does the source list for `CN1CCN(CCCOc2cccc3nc(Nc4ccc(F)c(F)c4)ccc23)CC1`?
**A.** GI50 (CCRF-CEM): 2.42 µM; GI50 (K562): 0.66 µM; GI50 (SR): 0.87 µM; GI50 (A549): 3.5 µM; GI50 (HOP-62): 1.25 µM; GI50 (HOP-92): 1.43 µM; GI50 (NCI-H226): 5.51 µM; GI50 (NCI-H23): 4.67 µM; GI50 (NCI-H322M): 3.93 µM; GI50 (NCI-H460): 2.37 µM; GI50 (NCI-H522): 1.01 µM; GI50 (HCT-116): 3.8 µM; GI50 (HCT-15): 0.96 µM; GI50 (HT-29): 0.62 µM; GI50 (KM12): 2.35 µM; GI50 (SF-295): 4.64 µM; GI50 (SNB-75): 3.92 µM; GI50 (U-251): 2.68 µM; GI50 (LOX IMVI): 1.03 µM; GI50 (SK-MEL-28 [1]): 1.08 µM; GI50 (UACC-257): 0.66 µM; GI50 (UACC-62): 0.7 µM; GI50 (IGROV-1): 5.55 µM; GI50 (OVCAR-3): 4.58 µM; GI50 (OVCAR-4): 6.42 µM; GI50 (OVCAR-8): 5.13 µM; GI50 (A498): 5.66 µM; GI50 (RXF 393): 2.11 µM; GI50 (TK-10): 2.63 µM; GI50 (UO-31): 4.34 µM; GI50 (PC-3): 3.83 µM; GI50 (MCF7): 3.33 µM; GI50 (MDA-MB-231): 0.937 µM; GI50 (Hs-578T): 4.73 µM; GI50 (MDA-MB-468): 2.11 µM; growth at 10 µM (SK-MEL-5): -26.8%; GI50 [2]: 2.6 µM; LC50 (50% lethal concentration) [2]: 21.1 µM; TGI [2]: 7.09 µM; GI50 (cells): 3.17 µM; LC50 (50% lethal concentration) (cells): 18.9 µM; TGI (cells): 7.79 µM; GI50 [3]: 2.11 µM; TGI [3]: 5.9 µM; CC50 [3]: 12.2 µM; GI50 [4]: 4.1 µM; TGI [4]: 9.09 µM; CC50 [4]: 16.1 µM; GI50 [5]: 1.69 µM; LC50 [5]: 10.5 µM; TGI [5]: 4.4 µM; GI50 [6]: 5.13 µM; LC50 [6]: 20.5 µM; TGI [6]: 10.8 µM; GI50 [7]: 4.16 µM; LC50 (lethal concentration 50%) [7]: 18.9 µM; TGI [7]: 8.98 µM; GI50 [8]: 4.07 µM; LC50 (concentration killing 50% of cells) [8]: 18 µM; TGI [8]: 8.55 µM; GI50 [9]: 3.14 µM; TGI [9]: 7.98 µM; CC50 [9]: 20.3 µM; GI50 [10]: 2.63 µM; TGI [10]: 6.76 µM; CC50 [10]: 16.2 µM

**Q.** Which results are given for `CN1CCN(CCCOc2cccc3nc(Nc4cccc(Cl)c4)ccc23)CC1`?
**A.** GI50 (CCRF-CEM): 1.68 µM; GI50 (K562): 1.79 µM; GI50 (SR): 2.2 µM; GI50 (A549): 2.02 µM; GI50 (HOP-62): 1.72 µM; GI50 (HOP-92): 1.65 µM; GI50 (NCI-H226): 1.62 µM; GI50 (NCI-H23): 2.27 µM; GI50 (NCI-H322M): 2.67 µM; GI50 (NCI-H460): 1.87 µM; GI50 (NCI-H522): 1.48 µM; GI50 (HCT-116): 1.55 µM; GI50 (HCT-15): 1.58 µM; GI50 (HT-29): 1.5 µM; GI50 (KM12): 1.78 µM; GI50 (SF-295): 1.91 µM; GI50 (SNB-75): 1.38 µM; GI50 (U-251): 1.89 µM; GI50 (LOX IMVI): 1.68 µM; GI50 (SK-MEL-28 [1]): 1.65 µM; GI50 (UACC-257): 1.81 µM; GI50 (UACC-62): 1.91 µM; GI50 (IGROV-1): 2.23 µM; GI50 (OVCAR-3): 1.45 µM; GI50 (OVCAR-4): 1.94 µM; GI50 (OVCAR-8): 1.9 µM; GI50 (A498): 1.88 µM; GI50 (RXF 393): 1.85 µM; GI50 (TK-10): 1.67 µM; GI50 (UO-31): 1.84 µM; GI50 (PC-3): 1.81 µM; GI50 (MCF7): 1.57 µM; GI50 (Hs-578T): 1.83 µM; GI50 (MDA-MB-468): 1.61 µM; inhibition at 10 µM [11]: 22.4%; inhibition at 1 µM [12]: 12.2%; inhibition at 0.1 µM [13]: 5.4%; GI50 [14]: > 10 µM; growth at 10 µM (SK-MEL-28 [15]): 35.5%; GI50 [2]: 1.99 µM; LC50 (50% lethal concentration) [2]: 38 µM; TGI [2]: 4.65 µM; GI50 (cells): 3.73 µM; LC50 (50% lethal concentration) (cells): 23.9 µM; TGI (cells): 8.65 µM; GI50 [3]: 1.64 µM; TGI [3]: 3.1 µM; CC50 [3]: 5.87 µM; GI50 [4]: 1.89 µM; TGI [4]: 4 µM; CC50 [4]: 23.3 µM; GI50 [5]: 1.76 µM; LC50 [5]: 6.45 µM; TGI [5]: 3.37 µM; GI50 [6]: 2.01 µM; LC50 [6]: 11.5 µM; TGI [6]: 4.31 µM; GI50 [7]: 1.9 µM; LC50 (lethal concentration 50%) [7]: 17.4 µM; TGI [7]: 5.37 µM; GI50 [8]: 1.9 µM; LC50 (concentration killing 50% of cells) [8]: 7.02 µM; TGI [8]: 3.65 µM; GI50 [9]: 1.85 µM; TGI [9]: 6.69 µM; CC50 [9]: 20.8 µM; GI50 [10]: 1.91 µM; TGI [10]: 4.17 µM; CC50 [10]: 10.7 µM
